From PubChem BioAssay AID624448 (The Scripps Research Institute Molecular Screening Center, 2012)
Activity calls are given as the source filed them.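 How the source made its calls: active means PP5 phosphatase activity cut by at least half at the top 100 µM dose; inactive means less than half inhibition at 100 µM.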

These compounds were tested against Serine/threonine-protein phosphatase 5 (Homo sapiens) (UniProt P53041) (assay: PP5 phosphatase inhibitor potency, late-stage follow-up, biochemical, OMFP substrate, fluorescence, round 5, 1 µM low dose (AID 624448)). Conditions: purified PP5c, OMFP dephosphorylation.
Sequence of Serine/threonine-protein phosphatase 5 (Homo sapiens) (P53041 whole entry, looked up): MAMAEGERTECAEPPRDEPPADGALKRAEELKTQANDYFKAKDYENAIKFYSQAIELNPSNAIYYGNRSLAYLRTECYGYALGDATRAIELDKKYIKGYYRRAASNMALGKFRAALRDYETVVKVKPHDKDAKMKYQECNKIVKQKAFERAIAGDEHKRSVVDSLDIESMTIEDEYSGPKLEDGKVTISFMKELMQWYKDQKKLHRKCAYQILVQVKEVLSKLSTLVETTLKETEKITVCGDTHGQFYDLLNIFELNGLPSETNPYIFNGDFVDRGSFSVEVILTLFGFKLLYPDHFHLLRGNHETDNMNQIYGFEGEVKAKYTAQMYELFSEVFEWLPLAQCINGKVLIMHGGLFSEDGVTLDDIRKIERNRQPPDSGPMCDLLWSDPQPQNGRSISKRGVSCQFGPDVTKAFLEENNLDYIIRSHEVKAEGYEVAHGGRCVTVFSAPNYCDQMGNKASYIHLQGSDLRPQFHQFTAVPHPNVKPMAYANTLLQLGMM

SMILES | IC50
O=C(O)c1ncn[nH]1 | > 100 µM (inactive)
O=C(O)c1nn(Cc2ccccc2)nc1Cl | > 100 µM (inactive)
O=C(O)c1cn(Cc2ccccc2)nn1 | > 100 µM (inactive)
O=C(O)c1cn[nH]n1 | > 100 µM (inactive)

Now from value to compound:

IC50 | SMILES
> 100 µM (inactive) | COC(=O)c1n[nH]nc1-c1ccccc1
> 100 µM (inactive) | Cc1n[nH]nc1C(=O)O
> 100 µM (inactive) | O=C(O)c1cn[nH]c1-c1ccccc1
> 100 µM (inactive) | O=C(O)c1nnn(-c2ccccc2)c1-c1ccccc1
